Experimental data taken from US7981875B2, “2″ oxo-voruscharin and derivatives thereof” (priority 2002, dated 2011).
Read-outs that look alike come from different tables or passages of the source.

Tests used:
[1] = system: J82; experiment: MTT test, overall cell growth; format: cell-based, human
Method: (§1) In order to characterize the in vitro activities of the compounds according to the invention, MTT tests were carried out. The MTT test, which is a well-known test in the art, is an indirect technique that rapidly measures, i.e. within 5 days, the effect of a given product on the overall cell growth. This test measures the number of metabolically active living cells that are able to transform the MTT product (3-(4,5-dimethylthiazol-2-yl)-2,5 diphenyl tetrazolium bromide), having a yellowish color, to the blue product formazan dye by mitochondrial reduction. The amount of formazan obtained at the end of the experiment is measured with a spectrophotometer and is directly proportional to the number of living cells. Determination of the optical density enables a quantitative measurement of the effect of the investigated compounds as compared to the control condition (untreated cells) and to compare it to other reference compound. In the following examples different compounds according to the invention were tested and compared to the reference compound being uscharin.
(§2) Six human cancer cell lines, described in Table C, were tested in the presence of compounds according to the invention. These cell lines covered four histological cancer types, being Glioma, colon, lung and bladder cancer. The cells were allowed to grow in 96-well micro wells with a flat bottom with an amount of 100 μl of cell suspension per well in reason to 4000 cells/well depending on cell type. Each cell line was seeded in its own cell culture medium (Table C).
(§3) After a 24-hour period of incubation at 37° C., the culture medium is replaced by 100 μl of fresh medium in which the compound to be tested has been dissolved at different required concentrations. Different compounds were tested at 10^−9 M, 5×10^−9 M, 10^−8 M, 5×10^−8 M, 10^−7 M, 5×10^−7 M, 10^−6 M, 5×10^−6 M et 10^−5 M. Each experimental condition is carried out in hexaplicate. The compounds tested are 2″ oxo-voruscharin, and compounds B, C, D, E, H and I represented in Table B above.
(§4) After 72 hours of incubation at 37° C. with the compound (experimental conditions) or without the compound (control condition), the medium was replaced by 100 μl MTT at the concentration of 1 mg/ml dissolved in RPMI. The micro wells were subsequently incubated during 3 hours at 37° C. and centrifuged at 400 g during 10 minutes. The MTT was removed and formazan crystals formed, were dissolved in 100 μl DMSO. The micro wells were shaken for 5 minutes and read on a spectrophotometer at the wavelengths of 570 nm corresponding to the maximum formazan absorbance wavelength, and of 630 nm, which is the background noise wavelength.
(§5) For each experimental condition, the mean OD associated with the SEM (standard error of the mean) for each condition (6 wells) was calculated. The percentage of remaining living cells in comparison with the control was calculated. Results of these experiments are represented in FIGS. 2 to 8.

[2] = system: HCT-15; experiment: MTT test, overall cell growth; format: cell-based, human
Method: as §1, §2, §3, §4, §5

[3] = system: U-373 MG; experiment: MTT test, overall cell growth; format: cell-based, human; details: U-373, MTT, 72 hours of incubation
Method: as §1, §2, §3, §4, §5

[4] = system: Hs683; experiment: MTT test, overall cell growth; format: cell-based, human
Method: as §1, §2, §3, §4, §5

[5] = system: LoVo; experiment: MTT test, overall cell growth; format: cell-based, human; details: 72 hours of incubation
Method: as §1, §2, §3, §4, §5

[6] = system: A549; experiment: MTT test, overall cell growth; format: cell-based, human; details: 72 hours of incubation
Method: as §1, §2, §3, §4, §5

[7] = Maximum Tolerated Dose in healthy mice; format: in vivo; details: single administration in mice, healthy animals, 14 days post-injection
Method: The Maximum Tolerated Dose (MTD) of a given drug is defined as the maximum amount of a drug which can be administered acutely (i.e. in one i.p., i.v., s.c. or per os single dose) to healthy animals, i.e. animals not grafted with tumors. The survival times and weights of the animals are recorded up to 14 days post-injection. Five different doses of each drug are used for the determination of the MTD index. When the MTD index is higher than 160 mg/kg (i.p. administration) the drug is usually considered to be non-toxic, and the highest dose administered to tumor-bearing mice is MTD/2=80 mg/kg. Each experimental group was composed of 3 mice for the determination of the MTD index.

[8] = system: HCT-15 human cancer cells; experiment: Cell cycle kinetics by flow cytometry (propidium iodide); format: cell-based; parameters: key to Effect on cell cycle kinetics, G0/G1 / Effect on cell cycle kinetics, S / Effect on cell cycle kinetics, G2/M: n.s. means no significant; ** means highly significant; *** very highly significant
Method: (§6) Cell lines were seeded in flasks (25 cm^2 area) containing 7 ml of culture medium. After 48 hours incubation at 37° C. the cell culture medium was replaced by a fresh medium in which the substance to be tested had been dissolved at the different concentrations required. Uscharin and 2″ oxo-voruscharin were tested at concentrations, which kill 50% and 30% of the cell population, represented by the IC50 and IC30 values, respectively. After 24 or 72 hours of treatment the cells were harvested in suspension, washed in Phosphate Buffer Saline (PBS) at 4° C. and permeabilized with 70% ethanol (at 4° C.) overnight at −20° C. The cells were then washed with PBS and incubated with propidium iodide solution (80 μg/ml) for 30 minutes at 37° C. and afterward at 4° C. overnight. Ribonuclease A (3% V/V) was added to the PI solution to break doubled-stranded RNA. The portrait of the cell cycle was established for each sample. Software incorporated into the flow cytometer was used to define precisely the percentage of cells in the different cell cycle phases. Each cell cycle phase was reported in terms of peak surface and calculated as a percentage. The surface of the entire cell cycle was 100%. Each experiment was carried out 3 times. The mean percentage of each different phase and the standard error of the related mean were calculated. Each cell cycle phase of a given condition was compared with the same cell cycle phase of control. The non-treated cells constituted control.
(§7) Uscharin and 2″ oxo-voruscharin are highly toxic to human tumor cell lines. The concentrations used in the flow cytometry experiments were chosen in accordance with the MTT results (example 2). Three human cancer cell lines, Hs683, J82, and HCT-15 were tested and doses that killed 30 and 50 percent of the cells were applied to investigate whether uscharin and 2″ oxo-voruscharin promoted an accumulation in one of the cell cycle phases when the cell cultures were treated for 24 or 72 hours with increasing concentrations of the compounds. The IC50 and IC30 values for uscharin and 2″ oxo-voruscharin corresponding to the three tested cell lines are represented in Table E.

[9] = system: J82 human cancer cells; experiment: as above; format: cell-based; parameters: key to Effect on cell cycle kinetics, G0/G1 / Effect on cell cycle kinetics, S / Effect on cell cycle kinetics, G2/M: n.s. means no significant; ** means highly significant; *** very highly significant
Method: as §6, §7

[10] = system: Hs683 human cancer cells; experiment: as above; format: cell-based; parameters: key to Effect on cell cycle kinetics, G0/G1 / Effect on cell cycle kinetics, S / Effect on cell cycle kinetics, G2/M: n.s. means no significant; ** means highly significant; *** very highly significant
Method: as §6, §7

[11] = J82, MTT, 72 hours of incubation, read-out: IC50 value
[12] = HCT-15, MTT, 72 hours of incubation, read-out: IC50 value
[13] = Hs683, MTT, 72 hours of incubation, read-out: IC50 value

CC1CC2(NC(CC(=O)c3ccccc3)CS2)C2(O)OC3CC4(CO)C(CCC5C4CCC4(C)C(C6=CC(=O)OC6)CCC54O)CC3OC2O1 (single isomer, unassigned) [Compound H] gave an IC50 [1, 11] of 1 to 5 µM, an IC50 [2, 12] of 10 to 50 nM and an IC50 [3] of 10 to 50 nM. It also gave an IC50 [4, 13] of 1 to 5 nM, an IC50 [5] of 10 to 50 nM and an IC50 [6] of 1 to 5 nM. The MTD index [7] was 80 mg/kg.
In the case of CC1CC2(NC(CC(=O)c3ccccc3)CS2)C2(O)OC3CC4(CO)C(CCC5C4CCC4(C)C(C6=CC(=O)OC6)CCC54O)CC3OC2O1 (single isomer, unassigned) [Compound I], the IC50 [1, 11] is reported as 1 to 5 µM, the IC50 [2, 12] is reported as 10 to 50 nM and the IC50 [3] is reported as 10 to 50 nM. The IC50 [4, 13] was 1 to 5 nM, the IC50 [5] was 10 to 50 nM and the IC50 [6] was 1 to 5 nM. It also gave an MTD index [7] of 80 mg/kg.
With CC(=O)OCC12CC3OC4(O)C(OC(C)CC45NC(=O)CS5)OC3CC1CCC1C2CCC2(C)C(C3=CC(=O)OC3)CCC12O (centres unmarked) [Compound C] the IC50 [1, 11] was > 10 µM, the IC50 [2, 12] was 1000 to 5000 nM and the IC50 [3] was 1000 to 5000 nM. It also gave an IC50 [4, 13] of 1000 to 5000 nM, an IC50 [5] of 1000 to 5000 nM and an IC50 [6] of 1000 to 5000 nM. For the same compound, the MTD index [7] was > 40 mg/kg.
With CC1CC2(N=CCS2)C2(O)OC3CC4(CO)C(CCC5C4CCC4(C)C(C6=CC(=O)OC6)CCC54O)CC3OC2O1 (centres unmarked) [Compound D] the IC50 [1, 11] was 5 to 10 µM, the IC50 [2, 12] was 10 to 50 nM and the IC50 [3] was 10 to 50 nM. It also gave an IC50 [4, 13] of 1 to 5 nM, an IC50 [5] of 1 to 5 nM and an IC50 [6] of 10 to 50 nM. It also gave an MTD index [7] of 10 mg/kg.
In the case of CC(=O)OCC12CC3OC4(O)C(OC(C)CC45N=CCS5)OC3CC1CCC1C2CCC2(C)C(C3=CC(=O)OC3)CCC12O (centres unmarked) [Compound E], the IC50 [1, 11] is reported as > 10 µM, the IC50 [2, 12] is reported as 1000 to 5000 nM and the IC50 [3] is reported as 1000 to 5000 nM. It also gave an IC50 [4, 13] of 1000 to 5000 nM, an IC50 [5] of 1000 to 5000 nM and an IC50 [6] of 1000 to 5000 nM.
With C[C@@H]1CC2(N=CCS2)C2(O)O[C@@H]3C[C@]4(C=O)C5CC[C@]6(C)[C@@H](C7=CC(=O)OC7)CC[C@]6(O)[C@@H]5CC[C@H]4C[C@H]3O[C@@H]2O1 (some centres unmarked) [uscharin] the IC50 ([1]; Homo sapiens, J82, MTT, 72 hours of incubation, read-out: IC50 value) was 5 to 10 µM, the IC50 ([1]; Homo sapiens, J82, Table E, concentration used for flow cytometry, chosen in accordance with MTT results, read-out: IC50) was 4.3 µM and the IC30 ([1]; J82, Table E, concentration which kills 30% of the cell population) was 1.7 µM. The IC30 ([2]; HCT-15, Table E, concentration which kills 30% of the cell population) was 8.5 nM, the IC50 ([2]; Homo sapiens, HCT-15, MTT, 72 hours of incubation, read-out: IC50 value) was 10 to 50 nM and the IC50 ([2]; Homo sapiens, HCT-15, Table E, concentration used for flow cytometry, chosen in accordance with MTT results, read-out: IC50) was 43 nM. The IC50 ([3]; Homo sapiens, U373 MG) was 10 to 50 nM, the IC50 ([4]; Homo sapiens, Hs 683, Hs683, MTT, 72 hours of incubation, read-out: IC50 value) was 1 to 5 nM and the IC50 ([4]; Homo sapiens, Hs 683, Hs683, Table E, concentration used for flow cytometry, chosen in accordance with MTT results, read-out: IC50) was 170 nM. It also gave an IC30 ([4]; Hs683, Table E, concentration which kills 30% of the cell population) of 43 nM, an IC50 ([5]; Homo sapiens) of 5 to 10 nM and an IC50 ([6]; Homo sapiens) of 10 to 50 nM. The “Effect on cell cycle kinetics, G0/G1” value ([8]; HCT-15, 24 h) was “n.s”, the “Effect on cell cycle kinetics, G2/M” value ([8]; HCT-15, 24 h) was “n.s” and the “Effect on cell cycle kinetics, S” value ([8]; HCT-15, 24 h) was “n.s”. For the same compound, the “Effect on cell cycle kinetics, G0/G1” value ([8]; HCT-15, 72 h) was “n.s”, the “Effect on cell cycle kinetics, G2/M” value ([8]; HCT-15, 72 h) was “n.s” and the “Effect on cell cycle kinetics, S” value ([8]; HCT-15, 72 h) was “**”. For the same compound, the “cell cycle, S-phase” value ([8]; HCT-15, 72 hours, highest concentration tested (4.3×10^−8 M uscharin, 1.2×10^−8 M 2″oxo-voruscharin)) was “accumulation in S-phase”, the “Effect on cell cycle kinetics, G0/G1” value ([9]; J82, 24 h) was “n.s” and the “Effect on cell cycle kinetics, G2/M” value ([9]; J82, 24 h) was “n.s”. For the same compound, the “Effect on cell cycle kinetics, S” value ([9]; J82, 24 h) was “***”, the “Effect on cell cycle kinetics, G0/G1” value ([9]; J82, 72 h) was “n.s” and the “Effect on cell cycle kinetics, G2/M” value ([9]; J82, 72 h) was “n.s”. The “Effect on cell cycle kinetics, S” value ([9]; J82, 72 h) was “***”, the “cell cycle, S-population” value ([9]; J82, independent of the concentrations applied or the timing of treatment) was “significant increase in the S-population” and the “cell cycle, S-phase” value ([10]; Hs683, 1.7×10^−7 M for 24 and 72 hours, statistically significant) was “accumulation of cells in S-phase”. The “cell cycle, G2/M-phase” value ([10]; Hs683, 1.7×10^−7 M for 24 hours) was “significant accumulation in G2/M-phase”, the “Effect on cell cycle kinetics, G0/G1” value ([10]; Hs683, 24 h) was “n.s” and the “Effect on cell cycle kinetics, G2/M” value ([10]; Hs683, 24 h) was “***”. The “Effect on cell cycle kinetics, S” value ([10]; Hs683, 24 h) was “***”, the “Effect on cell cycle kinetics, G0/G1” value ([10]; Hs683, 72 h) was “n.s” and the “Effect on cell cycle kinetics, G2/M” value ([10]; Hs683, 72 h) was “n.s”. For the same compound, the “Effect on cell cycle kinetics, S” value ([10]; Hs683, 72 h) was “***”.
